# In publication PMC8348901, “Novel N-Substituted 3-Aryl-4-(diethoxyphosphoryl)azetidin-2-ones as Antibiotic Enhancers and Antiviral Agents in Search for a Successful Treatment of Complex Infections” (International Journal of Molecular Sciences, 2021):
# Where two headings read alike, the source gives them in different places.
# Columns and labels:
# [1] = system: cytomegalovirus AD-169 strain; assay: Antiviral CPE reduction assay, cytomegalovirus AD-169 strain in HEL cells; type: cell-based, human cytomegalovirus (HCMV); settings: Human betaherpesvirus 5, AD169
# [2] = system: NCI-H460 (lung carcinoma); assay: Cytostatic activity (cell proliferation); type: cell-based
# Description: (§1) The 50% cytostatic inhibitory concentration (IC50) causing a 50% decrease in cell proliferation was determined for all obtained compounds toward 9 cancerous cell lines, i.e.,: Capan-1 (pancreatic adenocarcinoma), Hap1 (chronic myeloid leukemia), HCT-116 (colorectal carcinoma), NCI-H460 (lung carcinoma), DND-41 (acute lymphoblastic leukemia), HL-60 (acute myeloid leukemia), K-562 (chronic myeloid leukemia), MM.1S (multiple myeloma), Z-138 non-Hodgkin lymphoma), as well as normal retina (non-cancerous) cells (hTERT RPE-1). Docetaxel, etoposide and stauroporine were used as the reference compounds.
# (§2) All assays were performed in 96-well microtiter plates. To each well was added (5–7.5) × 10^4 tumor cells and a given amount of the tested compound. The cells were allowed to proliferate at 37 °C in a humidified, CO2-controlled atmosphere. At the end of the incubation period, the cells were counted in a Coulter counter. The IC50 (50% inhibitory concentration) was defined as the concentration of the compound that inhibited cell proliferation by 50%.
# [3] = system: hTERT RPE-1 normal retina (non-cancerous) cells; assay: Cytostatic activity (cell proliferation); type: cell-based
# Description: as §1, §2
# [4] = system: DND-41 (acute lymphoblastic leukemia); assay: Cytostatic activity (cell proliferation); type: cell-based
# Description: as §1, §2
# [5] = system: Hap1 (chronic myeloid leukemia); assay: Cytostatic activity (cell proliferation); type: cell-based
# Description: as §1, §2
# [6] = system: HCT-116 (colorectal carcinoma); assay: Cytostatic activity (cell proliferation); type: cell-based
# Description: as §1, §2
# MRSA HEMSA 5 = assay: Oxacillin MIC reduction (adjuvant) microdilution assay; type: cell-based, Staphylococcus aureus; settings: for Activity Gain [A]: MIC(OXA)/MIC(OXA+Cpd), compound 0.5 mM, adjuvant activity if A ≥ 4
# Description: (§3) Since the lack of direct antibacterial activity of the obtained azetidinones was observed, all isomers trans and cis were investigated on their “adjuvant” properties, i.e., an ability to enhance the effectiveness of antibiotics against S. aureus strains. Thus, the compounds were tested in combination with the known β-lactam antibiotic, oxacillin, in the microdilution assays. The ability of the tested azetidinones to reduce minimum inhibitory concentration (MIC) of oxacillin against both, the referenced and the resistant S. aureus strains, was assessed.
# (§4) The in-vitro antibacterial property and the capacity of tested compounds to increase the efficacy of antibiotics were evaluated in two Staphylococcus aureus strains, i.e., the reference clonal complex 5 (CC5) methicillin-susceptible (MSSA) strain ATCC 25923, and the methicillin-resistant (MRSA) extensively drug-resistant (XDR) clinical isolate HEMSA-5 [46].
# (§5) In order to assess the increase of antibiotic efficacy, the assays were conducted by determining if/to what extent the investigated compounds reduce MICs of oxacillin by means of a serial dilution broth microplate method, in accordance with the CLSI requirements. The concentrations of compounds used in the MICs reduction assay were no greater than 1/4 of their respective MICs to ensure that cell viability was not affected by the intrinsic antibacterial activity of the molecules. Serial two-fold dilutions of oxacillin (Sigma-Aldrich; St. Louis, MI, USA, cat. no. 28221), were prepared in […] of the Mueller–Hinton broth (Merck; Darmstadt, Germany, cat. no. 1102930500). Suitable concentrations of the compounds (total volume […]) were then added. Bacterial suspensions were diluted to OD ¼ 0.5. The resulting suspensions were then diluted 1:100 and added in the volume of […] into the oxacillin serial dilutions with the compounds. The results were read after 20-h incubation at 37 °C.
# (§6) The ability of compounds to improve antibiotic efficacy was expressed as the activity gain [A] parameter calculated according to the formula given in Figure 10.
# (§7) Figure 10 Activity gain. MICAnt corresponds to the MIC of oxacillin in the absence of a compound tested and MICAnt + Comp refers to the MIC of oxacillin paired with a compound tested.
# S. aureus ATCC 25923 = assay: as above; type: cell-based, Staphylococcus aureus; settings: for Activity Gain [A]: MIC(OXA)/MIC(OXA+Cpd), compound 0.5 mM, adjuvant activity if A ≥ 4
# Description: as §3, §4, §5, §6, §7
# [7] = system: Capan-1 (pancreatic adenocarcinoma); assay: Cytostatic activity (cell proliferation); type: cell-based
# Description: The 50% cytostatic inhibitory concentration (IC50) causing a 50% decrease in cell proliferation was determined for all obtained compounds toward 9 cancerous cell lines, i.e.,: Capan-1 (pancreatic adenocarcinoma), Hap1 (chronic myeloid leukemia), HCT-116 (colorectal carcinoma), NCI-H460 (lung carcinoma), DND-41 (acute lymphoblastic leukemia), HL-60 (acute myeloid leukemia), K-562 (chronic myeloid leukemia), MM.1S (multiple myeloma), Z-138 non-Hodgkin lymphoma), as well as normal retina (non-cancerous) cells (hTERT RPE-1).
# All assays were performed in 96-well microtiter plates. To each well was added (5–7.5) × 10^4 tumor cells and a given amount of the tested compound. The cells were allowed to proliferate at 37 °C in a humidified, CO2-controlled atmosphere. At the end of the incubation period, the cells were counted in a Coulter counter.
# in vitro = settings: dog
# [8] = system: influenza A virus H1N1 subtype; assay: Antiviral assay, influenza A virus H1N1 subtype in MDCK cells; type: cell-based, influenza A virus H1N1 (A/PR/8)
# [9] = oxacillin MIC in presence of 0.5 mM compound
Structure (SMILES),"IC50 ([2]; Homo sapiens, NCI-H460) [µM]",IC50 ([3]; hTERT-RPE1) [µM],IC50 ([4]; DND41) [µM],"IC50 ([5]; Homo sapiens, HAP1) [µM]","IC50 ([6]; Homo sapiens, HCT-116) [µM]",Activity Gain [A] (MRSA HEMSA 5),Activity Gain [A] (S. aureus ATCC 25923),"IC50 ([7]; Homo sapiens, CAPAN-1) [µM]",other results
Nc1nc(O)c2ncn(COC(CO)CO)c2n1 [ganciclovir],–,–,–,–,–,–,–,–,EC50 [1]: 3.15 µM
"CCOP(=O)(OCC)[C@@H]1[C@H](c2ccc(F)cc2F)C(=O)N1Cc1ccccc1 (relative stereo) [cis-11e, cis-N-benzyl-3-(2,4-difluorophenyl)-4-(diethoxyphosphoryl)azetidin-2-one]",43,> 100,> 100,> 100,> 100,1,0.5,48.9,–
"CCOP(=O)(OCC)[C@@H]1[C@H](c2ccc(F)cc2)C(=O)N1Cc1ccccc1 (relative stereo) [cis-11d, cis-N-benzyl-3-(4-fluorophenyl)-4-(diethoxyphosphoryl)azetidin-2-one]",45.9,> 100,> 100,61.9,54.1,1,1,35.9,–
"CCOP(=O)(OCC)[C@H]1[C@H](c2ccccc2F)C(=O)N1C (relative stereo) [trans-10b, trans-N-methyl-3-(2-fluorophenyl)-4-(diethoxyphosphoryl)azetidin-2-one]",34.8,> 100,> 100,38.7,44.1,1,0.5,53.1,–
"CCOP(=O)(OCC)[C@H]1[C@H](c2ccc(F)cc2F)C(=O)N1C (relative stereo) [trans-10e, trans-N-methyl-3-(2,4-difluorophenyl)-4-(diethoxyphosphoryl)azetidin-2-one]",67.6,> 100,> 100,51.7,> 100,1,<0.5,51.7,–
"CCOP(=O)(OCC)[C@H]1[C@H](c2ccc(F)c(C)c2)C(=O)N1C (relative stereo) [trans-10f, trans-N-methyl-3-(4-fluoro-3-methylphenyl)-4-(diethoxyphosphoryl)azetidin-2-one]",59.7,90.2,> 100,41.8,> 100,1,0.5,47.7,–
"CCOP(=O)(OCC)[C@@H]1[C@H](c2ccccc2F)C(=O)N1Cc1ccccc1 (relative stereo) [cis-11b, cis-N-benzyl-3-(2-fluorophenyl)-4-(diethoxyphosphoryl)azetidin-2-one]",72.8,> 100,> 100,> 100,74.1,1,1,53,–
Nc1ccn(C[C@@H](CO)OCP(=O)(O)O)c(=O)n1 [cidofovir],–,–,–,–,–,–,–,–,EC50 [1]: 0.67 µM
"CCOP(=O)(OCC)[C@H]1[C@H](c2cccc(F)c2)C(=O)N1Cc1ccccc1 (relative stereo) [trans-11c, trans-N-benzyl-3-(3-fluorophenyl)-4-(diethoxyphosphoryl)azetidin-2-one]",44.3,45.9,> 100,56.1,45.5,1,<0.5,40.1,–
"CCOP(=O)(OCC)[C@H]1[C@H](c2ccc(F)cc2)C(=O)N1C (relative stereo) [trans-10d, trans-N-methyl-3-(4-fluorophenyl)-4-(diethoxyphosphoryl)azetidin-2-one]",41.3,> 100,> 100,58.1,> 100,1,0.5,45.7,–
"CCOP(=O)(OCC)[C@@H]1[C@H](c2ccccc2)C(=O)N1C (relative stereo) [cis-10a, cis-N-methyl-3-phenyl-4-(diethoxyphosphoryl)azetidin-2-one]",–,–,–,–,–,1–2,0.5,–,IC50 [2]: > 100 µM; IC50 [3]: > 100 µM; IC50 [4]: > 100 µM; IC50 [5]: 46.3 µM; IC50 [6]: > 100 µM; OXA+ Cpd MIC (MRSA HEMSA 5; [9]): 256 to 512 µg/mL; OXA+ Cpd MIC (S. aureus ATCC 25923; [9]): 1 µg/mL; IC50 [7]: 37.8 µM
"CCOP(=O)(OCC)[C@H]1[C@H](c2cccc(F)c2)C(=O)N1C (relative stereo) [trans-10c, trans-N-methyl-3-(3-fluorophenyl)-4-(diethoxyphosphoryl)azetidin-2-one]",62.8,> 100,> 100,69.1,> 100,1,0.5,19.6,–
"CCOP(=O)(OCC)[C@@H]1[C@H](c2ccccc2)C(=O)N1Cc1ccccc1 (relative stereo) [cis-11a, cis-N-benzyl-3-phenyl-4-(diethoxyphosphoryl)azetidin-2-one]",78.8,> 100,> 100,> 100,87.9,1–2,0.5,95.2,–
"NC(=O)c1ncn([C@@H]2O[C@H](CO)[C@@H](O)[C@H]2O)n1 [ribavirin, reference compound]",–,–,–,–,–,–,–,–,"CC50 (in vitro): ≥ 100 µM; EC50 ([8]; H1N1, MDCK cells, visual CPE score, read-out: EC50 by visual CPE score, influenza A virus H1N1): 8.9 µM; EC50 ([8]; H1N1, MDCK, read-out: EC50 by TMS score, influenza A virus H1N1): 6.6 µM"
